{
  "source": "patent US20100216255A1",
  "about": "“METHODS OF DETERMINING ACTIVE LEVELS OF DRUGS IN FLUID SAMPLES” (CLINICAL REFERENCE LABORATORY, priority 2001, published 2010)",
  "key": {"[1]": {"molecular_target": "T1, Beta-1-adrenergic receptor (Homo sapiens, UniProt P08588)", "T1 construct": "purchased Sigma Chemical RBIB-143", "T1 sequence (P08588 whole entry, species assumed)": "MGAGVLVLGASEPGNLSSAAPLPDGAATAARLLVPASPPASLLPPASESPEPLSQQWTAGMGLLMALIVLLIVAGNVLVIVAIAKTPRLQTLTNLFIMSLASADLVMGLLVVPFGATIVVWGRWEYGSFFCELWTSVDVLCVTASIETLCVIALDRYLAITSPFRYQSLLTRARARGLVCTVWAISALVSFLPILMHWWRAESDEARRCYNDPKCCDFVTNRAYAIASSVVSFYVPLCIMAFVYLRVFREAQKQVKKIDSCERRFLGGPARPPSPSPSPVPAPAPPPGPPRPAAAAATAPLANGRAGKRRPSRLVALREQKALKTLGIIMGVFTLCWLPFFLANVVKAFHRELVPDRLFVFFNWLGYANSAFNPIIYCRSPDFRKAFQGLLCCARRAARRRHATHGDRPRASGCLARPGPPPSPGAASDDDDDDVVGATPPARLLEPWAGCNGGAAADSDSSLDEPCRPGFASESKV", "test": "Cell receptor assay, competition with radiolabeled 125-iodocyanopindolol", "format": "binding", "conditions": "cut-off control, 20 ug/ml Atenolol in drug negative urine, diluted 1 to 10 before assay; 2 h at room temperature; counts inversely related to unlabeled ligand", "description": "This example provides a cell receptor assay for B1 adrenergic receptors and tests the accuracy of the assay. Patient urine that may or may not contain target ligand and a radiolabeled competitive ligand are added to a test tube containing a limited concentration of cell membrane containing beta-1-adrenergic receptors. The unlabeled ligand in the patient's urine competes with the labeled ligand for the receptor sites during an incubation period. Following incubation the tubes are centrifuged to precipitate the cell membrane-receptors. The solution containing unbound ligand is decanted and the radioactivity retained in the tubes is detected in a gamma counter. The amount of radioactivity bound is indirectly proportional to the concentration of unlabeled ligand present in the patient's urine. […] Adjust the pH to 7.4 with concentrated hydrochloric acid and fill to volume with deionized water. […] Thaw the stock solution of membrane and dilute to 30 milliliter with Tris working buffer. […] The working solution of radiolabel is prepared by diluting the stock 1 to 30 with Tris working buffer. […] Atenolol, propranolol and metoprolol were diluted with HPLC grade ethyl alcohol (Aldrich Chemical Company Milwaukee, Wis.) to produce a 1.0 mg/ml stock solution for each drug. […] The total radioactivity was detected on Packard Cobra II Auto Gamma counter (Packard Instrument Company Downers Grove, Ill.)."}, "[2]": {"molecular_target": "Angiotensin Converting Enzyme (ACE) (Homo sapiens, UniProt P12821)", "sequence (P12821 30-1232 limits assumed)": "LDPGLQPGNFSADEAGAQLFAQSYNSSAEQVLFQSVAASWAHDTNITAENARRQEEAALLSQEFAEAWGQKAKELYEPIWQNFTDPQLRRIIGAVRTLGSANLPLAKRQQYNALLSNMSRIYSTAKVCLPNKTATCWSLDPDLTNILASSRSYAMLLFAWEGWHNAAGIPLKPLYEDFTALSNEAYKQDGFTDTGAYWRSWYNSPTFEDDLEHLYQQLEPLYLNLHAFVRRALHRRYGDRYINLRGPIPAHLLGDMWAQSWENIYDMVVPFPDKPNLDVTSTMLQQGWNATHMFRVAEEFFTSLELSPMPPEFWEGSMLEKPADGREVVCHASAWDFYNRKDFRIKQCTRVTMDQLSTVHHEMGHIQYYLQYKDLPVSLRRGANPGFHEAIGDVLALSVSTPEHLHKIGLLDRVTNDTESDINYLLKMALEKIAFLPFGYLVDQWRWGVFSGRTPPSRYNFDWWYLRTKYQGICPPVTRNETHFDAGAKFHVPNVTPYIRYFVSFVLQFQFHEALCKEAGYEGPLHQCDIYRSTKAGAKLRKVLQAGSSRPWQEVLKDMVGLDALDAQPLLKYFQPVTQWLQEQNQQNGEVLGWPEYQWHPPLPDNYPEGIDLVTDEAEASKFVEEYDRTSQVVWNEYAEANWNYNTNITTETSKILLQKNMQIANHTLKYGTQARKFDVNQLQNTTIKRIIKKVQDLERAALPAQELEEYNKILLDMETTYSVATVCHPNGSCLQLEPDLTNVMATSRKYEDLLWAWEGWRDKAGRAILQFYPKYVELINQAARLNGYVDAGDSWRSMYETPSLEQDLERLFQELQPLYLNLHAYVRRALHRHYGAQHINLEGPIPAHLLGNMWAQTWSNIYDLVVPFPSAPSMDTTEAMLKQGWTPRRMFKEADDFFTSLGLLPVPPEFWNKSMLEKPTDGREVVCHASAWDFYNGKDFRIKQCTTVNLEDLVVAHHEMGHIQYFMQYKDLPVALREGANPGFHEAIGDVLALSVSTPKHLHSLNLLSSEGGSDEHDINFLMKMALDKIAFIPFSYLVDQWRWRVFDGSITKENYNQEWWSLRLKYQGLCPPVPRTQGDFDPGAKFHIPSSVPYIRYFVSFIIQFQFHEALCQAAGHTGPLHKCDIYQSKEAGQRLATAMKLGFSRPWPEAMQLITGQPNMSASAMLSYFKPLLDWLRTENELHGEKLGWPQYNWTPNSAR", "test": "ACE enzyme inhibition assay on samples from individuals reporting an ACE-inhibiting drug", "conditions": "urine samples from individuals self-reporting the drug; count out of the LISTED number", "description": "The bottle was then inverted a few times and then put on a shaker (Clay Adams CA6000 Centrifuge Becton Dickinson Microbiology System Sparks, Md.) at speed setting 2 for ten minutes. […] The pH was adjusted to 8.2 with 6 N hydrochloric acid.\nUsing the above-described reagents, a Hamilton MicroLab AT pipetting station was used to transfer 100 μl of the ACE serum in Tris buffer to each well of a microtiter plate. Next, 25 μl of the cut-off level calibrator, controls and unknown were added to their corresponding well locations with the Hamilton MicroLab AT, as shown in Table 1.\nFive different patient samples were then added to five other wells. The microtiter plate was shaker on Titer Plate Shaker (Lab Line Instruments, Inc. Melrose, Ill.) at a setting of 2 for at least five minutes before pipetting 100 μl of the substrate FAPGG into each well. Next, solution was mixed by shaking the microtiter plate on the shaker at a speed setting of 2 for one minute. The microtiter plate was placed in the Spectra Mac Plus (Molecular Devices, Sunnyvale, Calif.) plate reader and the optical density of each sample at 340 nanoMeter was determined. The microtiter plate was then incubated at 37° C. for two hours. The optical density was again determined on the plate reader. This two-hour reading of optical density was then subtracted from the initial reading of optical density and termed the “delta OD 340.”\nFluid samples were obtained from individuals reporting that they were currently taking an ACE-inhibiting drug. […] The medications reported by the patients included eight different medications of the ACE-inhibiting drug family. Each individual reported taking only one specific ACE-inhibiting drug. Thus, this example tests the ability of the assay to identify individuals on ACE-inhibiting drugs without prior knowledge of the specific drug being taken."}},
  "data": [
    {"molecule": "CC(C)NCC(O)COc1ccc(CC(N)=O)cc1", "note": "(stereo not shown) [Atenolol]", "values": [
      {"measurement": "Counts per Minute", "setting": "[1]", "value": 5117}
    ]},
    {"molecule": "CCOC(=O)[C@H](CCc1ccccc1)N[C@H]1CCc2ccccc2N(CC(=O)O)C1=O", "note": "[BENAZEPRIL, benazepril]", "values": [
      {"measurement": "DETECTED (samples testing positive for ACE-inhibiting drugs)", "setting": "[2]", "value": 14}
    ]},
    {"molecule": "CCOC(=O)[C@H](CCc1ccccc1)N[C@@H](C)C(=O)N1CCC[C@H]1C(=O)O", "note": "[ENALAPRIL, enalapril]", "values": [
      {"measurement": "DETECTED (samples testing positive for ACE-inhibiting drugs)", "setting": "[2]", "value": 5}
    ]},
    {"molecule": "NCCCC[C@H](N[C@@H](CCc1ccccc1)C(=O)O)C(=O)N1CCC[C@H]1C(=O)O", "note": "[LISINOPRIL, lisinopril]", "values": [
      {"measurement": "DETECTED (samples testing positive for ACE-inhibiting drugs)", "setting": "[2]", "value": 22}
    ]},
    {"molecule": "CCOC(=O)[C@H](CCc1ccccc1)N[C@@H](C)C(=O)N1Cc2cc(OC)c(OC)cc2C[C@H]1C(=O)O", "note": "[MOEXIPRIL, moexipril]", "values": [
      {"measurement": "DETECTED (samples testing positive for ACE-inhibiting drugs)", "setting": "[2]", "value": 3}
    ]},
    {"molecule": "CCOC(=O)[C@H](CCc1ccccc1)N[C@@H](C)C(=O)N1Cc2ccccc2C[C@H]1C(=O)O", "note": "[QUINAPRIL, quinapril]", "values": [
      {"measurement": "DETECTED (samples testing positive for ACE-inhibiting drugs)", "setting": "[2]", "value": 15}
    ]},
    {"molecule": "CCOC(=O)[C@H](CCc1ccccc1)N[C@@H](C)C(=O)N1[C@H](C(=O)O)C[C@@H]2CCC[C@@H]21", "note": "[RAMIPRIL, ramipril]", "values": [
      {"measurement": "DETECTED (samples testing positive for ACE-inhibiting drugs)", "setting": "[2]", "value": 2}
    ]}
  ]
}
